Test results: US20160095897A1 (priority 2013, published 2016)
Where two headings read alike, the source gives them in different places.

What was measured:
IAV A/PR/8/34 = type: in vivo, mice; conditions: lethal dose
IAV A/PR/8/34 (H1N1) = type: in vivo; conditions: mice, IAV A/PR/8/34 (H1N1) 40 or 60% lethal doses, pepducin p4pal-10 10 μg

N-palmitoyl-SGRRYGHALR-NH2 (HELM PEPTIDE1{[CCCCCCCCCCCCCCCC(=O)[*:2]].S.G.R.R.Y.G.H.A.L.R.[am]}$$$$V2.0; SMILES CCCCCCCCCCCCCCCC(=O)N[C@@H](CO)C(=O)NCC(=O)N[C@@H](CCCNC(=N)N)C(=O)N[C@@H](CCCNC(=N)N)C(=O)N[C@@H](Cc1ccc(O)cc1)C(=O)NCC(=O)N[C@@H](Cc1c[nH]cn1)C(=O)N[C@@H](C)C(=O)N[C@@H](CC(C)C)C(=O)N[C@@H](CCCNC(=N)N)C(N)=O) [pepducin p4pal-10]
IL1-β level in BAL (IAV A/PR/8/34; day 3 post-inoculation, ELISA): not at day 3 | IL-6 level in BAL (IAV A/PR/8/34; day 3 post-inoculation, ELISA): not at day 3 | MIP-2 level in BAL (IAV A/PR/8/34; day 3 post-inoculation, ELISA): not at day 3 | level of total proteins in BAL (IAV A/PR/8/34; day 6 post-inoculation): significantly reduced | IFN-γ level in BAL (IAV A/PR/8/34; day 6 post-inoculation, ELISA): significantly reduced | IL1-β level in BAL (IAV A/PR/8/34; day 6 post-inoculation, ELISA): significantly reduced | IL-6 level in BAL (IAV A/PR/8/34; day 6 post-inoculation, ELISA): significantly reduced | MIP-2 level in BAL (IAV A/PR/8/34; day 6 post-inoculation, ELISA): significantly reduced | KC level in BAL (IAV A/PR/8/34; treated vs not treated): similar | RANTES level in BAL (IAV A/PR/8/34; treated vs not treated): similar | death (IAV A/PR/8/34 (H1N1)): protected mice from weight loss and death | weight loss (IAV A/PR/8/34 (H1N1)): protected mice from weight loss
